Key:
BACE1 [1] = biological target: T1, BACE1 (Homo sapiens (Human), UniProt P56817); assay: In vitro enzymatic BACE1 FRET assay; format: biochemical; details: read-out: IC50 IP (μM) BACE1 Enzyme
Target sequence in this assay (P56817 46-501): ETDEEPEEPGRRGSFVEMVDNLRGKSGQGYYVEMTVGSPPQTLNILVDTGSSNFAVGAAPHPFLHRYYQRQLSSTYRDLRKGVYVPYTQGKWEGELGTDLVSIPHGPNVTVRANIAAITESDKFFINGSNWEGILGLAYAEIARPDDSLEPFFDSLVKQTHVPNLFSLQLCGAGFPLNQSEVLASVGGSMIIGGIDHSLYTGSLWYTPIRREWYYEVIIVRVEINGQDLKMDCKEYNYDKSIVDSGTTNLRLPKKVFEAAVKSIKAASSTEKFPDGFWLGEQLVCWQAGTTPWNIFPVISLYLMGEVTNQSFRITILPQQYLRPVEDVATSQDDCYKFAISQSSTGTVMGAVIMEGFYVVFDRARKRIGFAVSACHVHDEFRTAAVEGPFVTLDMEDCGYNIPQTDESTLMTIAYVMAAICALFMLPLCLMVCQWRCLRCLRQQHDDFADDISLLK
Text: (§1) In Vitro Enzymatic BACE1 and BACE2 FRET (Fluorescence Resonance Energy Transfer) Assays (Enzyme Assay Data in Table 1)

BACE1 [2] = biological target: T1, BACE1; assay: BACE1 cell assay; format: cell-based
Target sequence in this assay (P56817 46-501, species assumed): as the sequence (P56817 46-501) above

BACE2 = BACE2 (Homo sapiens (Human), UniProt Q9Y5Z0); assay: In vitro enzymatic BACE2 FRET assay; format: biochemical; details: read-out: IC50 IP (μM) BACE2 Enzyme
Text: as §1

[3] = read-out: IC50 IP (μM) BACE1 Cell

Sequence of BACE2 (Q9Y5Z0 63-518): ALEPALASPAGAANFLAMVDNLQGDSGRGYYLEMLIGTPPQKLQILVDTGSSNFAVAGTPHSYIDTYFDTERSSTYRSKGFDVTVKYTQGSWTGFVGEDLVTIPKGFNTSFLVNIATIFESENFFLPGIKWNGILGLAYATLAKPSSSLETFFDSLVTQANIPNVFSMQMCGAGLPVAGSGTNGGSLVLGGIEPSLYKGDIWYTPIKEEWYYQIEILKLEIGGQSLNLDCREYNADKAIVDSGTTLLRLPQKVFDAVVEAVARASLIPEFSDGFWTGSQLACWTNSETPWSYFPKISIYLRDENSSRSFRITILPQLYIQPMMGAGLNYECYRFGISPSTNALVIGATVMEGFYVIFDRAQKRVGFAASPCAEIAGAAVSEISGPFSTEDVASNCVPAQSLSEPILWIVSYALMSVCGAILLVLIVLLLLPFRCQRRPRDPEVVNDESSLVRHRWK

For `C[C@]1(c2cc(/C=C(\F)c3ccc(C#N)cn3)ccc2F)N=C(N)S[C@@]2(C(=O)N3CC[C@H](O)C3)C[C@H]21` [Example 125, 6-((Z)-2-(3-((1S,5S,6S)-3-amino-1-((S)-3-hydroxypyrrolidine-1-carbonyl)-5-methyl-2-thia-4-azabicyclo[4.1.0]hept-3-en-5-yl)-4-fluorophenyl)-1-fluorovinyl)nicotinonitrile], the IC50 (BACE1 [1]) was 0.000592 µM, the IC50 (BACE1 [2]; [3]) was 0.000986 µM and the IC50 (BACE2) was 0.0364 µM.

For `C#Cc1cnc(/C(F)=C/c2ccc(F)c([C@@]3(C)N=C(N)S[C@@]4(C(=O)N5CCOCC5)C[C@H]43)c2)cn1` [Example 350, ((1S,5S,6S)-3-amino-5-(5-((Z)-2-(5-ethynylpyrazin-2-yl)-2-fluorovinyl)-2-fluorophenyl)-5-methyl-2-thia-4-azabicyclo[4.1.0]hept-3-en-1-yl)(morpholino)methanone], the IC50 (BACE1 [1]) was 0.004 µM, the IC50 (BACE1 [2]; [3]) was 0.04 µM and the IC50 (BACE2) was 0.046 µM.

In the case of `COC(=O)[C@]12C[C@H]1[C@@](C)(c1cc(/C=C(\F)c3cnc(OCc4ncco4)cn3)ccc1F)N=C(N)S2` [Example 150, (1S,5S,6S)-methyl 3-amino-5-(2-fluoro-5-((Z)-2-fluoro-2-(5-(oxazol-2-ylmethoxy)pyrazin-2-yl)vinyl)phenyl)-5-methyl-2-thia-4-azabicyclo[4.1.0]hept-3-ene-1-carboxylate], the IC50 (BACE1 [1]) is reported as 0.0535 µM, the IC50 (BACE1 [2]; [3]) is reported as 0.379 µM and the IC50 (BACE2) is reported as 2.42 µM.

`C[C@]1(c2cc(/C=C(\F)c3cnc(C#N)cn3)ccc2F)N=C(N)S[C@@]2(C(=O)N3CC[C@H](F)C3)C[C@H]21` [Example 202, 5-((Z)-2-(3-((1S,5S,6S)-3-amino-1-((S)-3-fluoropyrrolidine-1-carbonyl)-5-methyl-2-thia-4-azabicyclo[4.1.0]hept-3-en-5-yl)-4-fluorophenyl)-1-fluorovinyl)pyrazine-2-carbonitrile] was tested, and the IC50 (BACE1 [1]) was 0.001 µM, the IC50 (BACE1 [2]; [3]) was 0.001 µM and the IC50 (BACE2) was 0.04 µM.

`C#CCOc1cnc(/C(F)=C/c2cnc(F)c([C@@]3(C)N=C(N)S[C@@]4(C(=O)N5CCOC[C@H]5C)C[C@H]43)c2)cn1` [Example 283, ((1S,5S,6S)-3-amino-5-(2-fluoro-5-((Z)-2-fluoro-2-(5-(prop-2-yn-1-yloxy)pyrazin-2-yl)vinyl)pyridin-3-yl)-5-methyl-2-thia-4-azabicyclo[4.1.0]hept-3-en-1-yl)((R)-3-methylmorpholino)methanone] gave an IC50 (BACE1 [1]) of 0.0017 µM, an IC50 (BACE1 [2]; [3]) of 0.0044 µM and an IC50 (BACE2) of 0.375 µM.

`C[C@]1(c2cc(/C=C(\F)c3ccc(C#N)cn3)ccc2F)N=C(N)S[C@@]2(C(=O)N3CCO[C@H]4C[C@H]43)C[C@H]21` [Example 311, 6-((Z)-2-(3-((1S,5S,6S)-3-amino-1-((1S,6R)-2-oxa-5-azabicyclo[4.1.0]heptane-5-carbonyl)-5-methyl-2-thia-4-azabicyclo[4.1.0]hept-3-en-5-yl)-4-fluorophenyl)-1-fluorovinyl)nicotinonitrile] showed an IC50 (BACE1 [1]) of 0.0018 µM, an IC50 (BACE1 [2]; [3]) of 0.0015 µM and an IC50 (BACE2) of 0.048 µM.

Work on `COC[C@]12C[C@H]1[C@@](C)(c1cc(/C=C(\F)c3ccc(Cl)cn3)ccc1F)N=C(N)S2` [Example 286, (1S,5S,6S)-5-(5-((Z)-2-(5-chloropyridin-2-yl)-2-fluorovinyl)-2-fluorophenyl)-1-(methoxymethyl)-5-methyl-2-thia-4-azabicyclo[4.1.0]hept-3-en-3-amine] yielded an IC50 (BACE1 [1]) of 0.0712 µM, an IC50 (BACE1 [2]; [3]) of 0.346 µM and an IC50 (BACE2) of 0.069 µM.

`C#CCOc1cnc(/C(F)=C/c2ccc(F)c([C@@]3(C)N=C(N)S[C@@]4(C(=O)N5CCOC[C@H]5C)C[C@H]43)c2)cn1` [Example 304, ((1S,5S,6S)-3-amino-5-(2-fluoro-5-((Z)-2-fluoro-2-(5-(prop-2-yn-1-yloxy)pyrazin-2-yl)vinyl)phenyl)-5-methyl-2-thia-4-azabicyclo[4.1.0]hept-3-en-1-yl)((R)-3-methylmorpholino)methanone] showed an IC50 (BACE1 [1]) of 0.0006 µM, an IC50 (BACE1 [2]; [3]) of 0.0015 µM and an IC50 (BACE2) of 0.29 µM.

Work on `C#CCOc1cnc(/C(F)=C/c2ccc(F)c([C@@]3(C)N=C(N)S[C@@]4(C(=O)N5CC[C@@H](F)C5)C[C@H]43)c2)cn1` [Example 297, ((1S,5S,6S)-3-amino-5-(2-fluoro-5-((Z)-2-fluoro-2-(5-(prop-2-yn-1-yloxy)pyrazin-2-yl)vinyl)phenyl)-5-methyl-2-thia-4-azabicyclo[4.1.0]hept-3-en-1-yl)((R)-3-fluoropyrrolidin-1-yl)methanone] yielded an IC50 (BACE1 [1]) of 0.0009 µM, an IC50 (BACE1 [2]; [3]) of 0.0004 µM and an IC50 (BACE2) of 0.041 µM.

`Cc1cc(C#N)cnc1/C(F)=C/c1ccc(F)c([C@@]2(C)N=C(N)S[C@@]3(C(=O)N4CCOCC4)C[C@H]32)c1` [Example 160, 6-((Z)-2-(3-((1S,5S,6S)-3-amino-5-methyl-1-(morpholine-4-carbonyl)-2-thia-4-azabicyclo[4.1.0]hept-3-en-5-yl)-4-fluorophenyl)-1-fluorovinyl)-5-methylnicotinonitrile] was tested, and the IC50 (BACE1 [1]) was 0.00734 µM, the IC50 (BACE1 [2]) was 0.0149 µM and the IC50 (BACE2) was 0.0891 µM.

For `C[C@]1(c2cc(/C=C(\F)c3ccc(C#N)cn3)cnc2F)N=C(N)S[C@@]2(C(=O)N3CCC(F)(F)C3)C[C@H]21` [Example 259, 6-((Z)-2-(5-((1S,5S,6S)-3-amino-1-(3,3-difluoropyrrolidine-1-carbonyl)-5-methyl-2-thia-4-azabicyclo[4.1.0]hept-3-en-5-yl)-6-fluoropyridin-3-yl)-1-fluorovinyl)nicotinonitrile], the IC50 (BACE1 [1]) was 0.0095 µM, the IC50 (BACE1 [2]; [3]) was 0.0309 µM and the IC50 (BACE2) was 0.113 µM.

`C[C@]1(c2cc(/C=C(\F)c3cnc(C#N)cn3)ccc2F)N=C(N)S[C@@]2(C(=O)N3CC[C@@H](F)C3)C[C@H]21` [Example 203, 5-((Z)-2-(3-((1S,5S,6S)-3-amino-1-((R)-3-fluoropyrrolidine-1-carbonyl)-5-methyl-2-thia-4-azabicyclo[4.1.0]hept-3-en-5-yl)-4-fluorophenyl)-1-fluorovinyl)pyrazine-2-carbonitrile] was tested, and the IC50 (BACE1 [1]) was 0.001 µM, the IC50 (BACE1 [2]; [3]) was 0.001 µM and the IC50 (BACE2) was 0.045 µM.

With `COC(=O)[C@]12C[C@H]1[C@@](C)(c1cc(/C=C(\F)c3cnc(Cl)cn3)ccc1F)N=C(N)S2` [Example 149, (1S,5S,6S)-methyl 3-amino-5-(5-((Z)-2-(5-chloropyrazin-2-yl)-2-fluorovinyl)-2-fluorophenyl)-5-methyl-2-thia-4-azabicyclo[4.1.0]hept-3-ene-1-carboxylate] the IC50 (BACE1 [1]) was 0.0352 µM, the IC50 (BACE1 [2]; [3]) was 0.883 µM and the IC50 (BACE2) was 0.206 µM.

Work on `C#C[C@H](C)Oc1cnc(/C(F)=C/c2ccc(F)c([C@@]3(C)N=C(N)S[C@@]4(C(C)=O)C[C@H]43)c2)cn1` [Example 237, 1-((1S,5S,6S)-3-amino-5-(5-((Z)-2-(5-((S)-but-3-yn-2-yloxy)pyrazin-2-yl)-2-fluorovinyl)-2-fluorophenyl)-5-methyl-2-thia-4-azabicyclo[4.1.0]hept-3-en-1-yl)ethanone] yielded an IC50 (BACE1 [1]) of 0.0032 µM, an IC50 (BACE1 [2]; [3]) of 0.0339 µM and an IC50 (BACE2) of 0.438 µM.

Work on `COC[C@]12C[C@H]1[C@@](C)(c1cc(/C=C(\F)c3cc4c(cn3)OCCO4)ccc1F)N=C(N)S2` [Example 305, (1S,5S,6S)-5-(5-((Z)-2-(2,3-dihydro-[1,4]dioxino[2,3-c]pyridin-7-yl)-2-fluorovinyl)-2-fluorophenyl)-1-(methoxymethyl)-5-methyl-2-thia-4-azabicyclo[4.1.0]hept-3-en-3-amine] yielded an IC50 (BACE1 [1]) of 1.76 µM, an IC50 (BACE1 [2]; [3]) of 0.793 µM and an IC50 (BACE2) of 0.373 µM.

In the case of `C[C@]1(c2cc(/C=C(\F)c3ccc(C#N)cn3)ccc2F)N=C(N)S[C@@]2(C(=O)N3CCO[C@@H]4C[C@@H]43)C[C@H]21` (single isomer, unassigned) [Example 312], the IC50 (BACE1 [1]) is reported as 0.0012 µM, the IC50 (BACE1 [2]; [3]) is reported as 0.0008 µM and the IC50 (BACE2) is reported as 0.068 µM.

`C[C@]1(c2cc(/C=C(\F)c3cnc(C#N)cn3)ccc2F)N=C(N)S[C@@]2(C(=O)N3CCCC3)C[C@H]21` [Example 204, 5-((Z)-2-(3-((1S,5S,6S)-3-amino-5-methyl-1-(pyrrolidine-1-carbonyl)-2-thia-4-azabicyclo[4.1.0]hept-3-en-5-yl)-4-fluorophenyl)-1-fluorovinyl)pyrazine-2-carbonitrile] showed an IC50 (BACE1 [1]) of 0.001 µM, an IC50 (BACE1 [2]) of 0.003 µM and an IC50 (BACE2) of 0.048 µM.

In the case of `C[C@]1(c2cc(/C=C(\F)c3ccc(C#N)cn3)ccc2F)N=C(N)S[C@@]2(C(=O)N3CCCC(F)(F)C3)C[C@H]21` [Example 324, 6-((Z)-2-(3-((1S,5S,6S)-3-amino-1-(3,3-difluoropiperidine-1-carbonyl)-5-methyl-2-thia-4-azabicyclo[4.1.0]hept-3-en-5-yl)-4-fluorophenyl)-1-fluorovinyl)nicotinonitrile], the IC50 (BACE1 [1]) is reported as 0.0011 µM, the IC50 (BACE1 [2]; [3]) is reported as 0.0031 µM and the IC50 (BACE2) is reported as 0.019 µM.

`C#CCOc1cnc(/C(F)=C/c2ccc(F)c([C@@]3(C)N=C(N)S[C@@]4(C(N)=O)C[C@H]43)c2)cn1` [Example 239, (1S,5S,6S)-3-amino-5-(2-fluoro-5-((Z)-2-fluoro-2-(5-(prop-2-yn-1-yloxy)pyrazin-2-yl)vinyl)phenyl)-5-methyl-2-thia-4-azabicyclo[4.1.0]hept-3-ene-1-carboxamide] gave an IC50 (BACE1 [1]) of 0.0013 µM, an IC50 (BACE1 [2]) of 0.0029 µM and an IC50 (BACE2) of 0.177 µM.

`C#CCOc1cnc(/C(F)=C/c2ccc(F)c([C@@]3(C)N=C(N)S[C@@]4(C(=O)N5CC[C@H](F)C5)C[C@H]43)c2)cn1` [Example 303, ((1S,5S,6S)-3-amino-5-(2-fluoro-5-((Z)-2-fluoro-2-(5-(prop-2-yn-1-yloxy)pyrazin-2-yl)vinyl)phenyl)-5-methyl-2-thia-4-azabicyclo[4.1.0]hept-3-en-1-yl)((S)-3-fluoropyrrolidin-1-yl)methanone] gave an IC50 (BACE1 [1]) of 0.0004 µM, an IC50 (BACE1 [2]; [3]) of 0.0005 µM and an IC50 (BACE2) of 0.093 µM.

With `C[C@]1(c2cc(/C=C(\F)c3ccc(C#N)cn3)ccc2F)N=C(N)S[C@@]2(C(=O)N3CC[C@@H](O)C3)C[C@H]21` [Example 333, 6-((Z)-2-(3-((1S,5S,6S)-3-amino-1-((R)-3-hydroxypyrrolidine-1-carbonyl)-5-methyl-2-thia-4-azabicyclo[4.1.0]hept-3-en-5-yl)-4-fluorophenyl)-1-fluorovinyl)nicotinonitrile] the IC50 (BACE1 [1]) was 0.0008 µM, the IC50 (BACE1 [2]; [3]) was 0.0007 µM and the IC50 (BACE2) was 0.053 µM.

Reference: patent US10246429B2, “Vinyl fluoride cyclopropyl fused thiazin-2-amine compounds as beta-secretase inhibitors and methods of use” (AMGEN INC., priority 2015, dated 2019)
